Source: patent publication US6476074B1, “Method and composition for treatment of erectile dysfunction” (Synphora AB, priority 1997, dated 2002)
One block for each compound: values may come before it.

What was measured:
[1] = reference value used for the TLC estimate; cited from earlier work
[2] = tested on: human corpus cavernosum tissue; assay: Relaxation of isolated human corpus cavernosum tissue precontracted with norepinephrine; format: cell-based; details: for EC50: relaxation of tissue precontracted with 10^−6 M norepinephrine; for EC50 / Reduction in tension (%): n=8; for Reduction in tension (%): precontracted with 10^−6 M norepinephrine, compared to carbachol (10^−6 M), Mean ± SEM
Protocol: Human penile cavernous tissue was obtained fresh from surgery, and representative tissue samples were mounted in smooth muscle tissue baths containing a modified Kreb's solution consisting of NaCl 119 mM, KCl 4.6 mM, MgCl2 1.2 mM, NaH2PO4 1.2 mM, NaHCO3 15 mM, CaCl2 1.5 mM and glucose 11 mM. The solution also contained indomethacin at a final concentration of about 3 μM. The solution was continuously bubbled by 95% O2 and 5% CO2, and the temperature was kept at 37° C.
The tissue preparations were stretched by a force corresponding to 500 mg, and were given a contractile tone by the addition of norepinephrine at a concentration of 10^−6 M. Concentration-response curves were then constructed by adding cumulatively increasing concentrations of the prostaglandin analogues to the bath in a routine way. The relaxant effect was normalized by comparing to that of carbachol in the same preparation.

cat eyes [3] = assay: Irritant effect in cat eyes (behavioural model, eyelid closure); format: in vivo; details: for Maximum irritative effect: scale 0-3, Mean ± SEM (n = 3-6); for irritant effect (in words): cat eye, topical single dose
Protocol: The irritant effect of the prostaglandin analogues was tested using a behavioural model in cats. In this model the irritant effect on the eye is studied by registering the degree of eyelid closure and the behaviour of the animals. Compounds that cause discomfort and pain in the eye cause the animals to close their eyes. The analogues were applied as carboxylic acid esters, to enhance bioavailability, topically on the eye as a single dose at different dose levels. The animals were then followed for several hours at regular intervals. Each compound and dose was tested on a group of 3-6 cats. At least 3 days elapsed between two consecutive tests on the same animals. An arbitrary scale from 0 (absence of irritation) to 3 (marked irritation), with half steps was used.

anaesthetized rats = assay: Reduction of blood pressure in anaesthetized rats on intravenous infusion; format: in vivo, rat; details: n=3, Mean ± SEM
Text: The vasodilatory effect of the prostaglandin analogues was also studied in the rat by registering the blood pressure reducing effect. This is a relevant […] model for showing general vasodilatory effect of importance for inducing erection since vasodilation in penis is needed for achieving erection. Rats were anaesthetized with a mixture of ketarnine and xylazin and the prostaglandin analogues were infused intravenously. The blood pressure was continuously registered in a femoral artery. Each analogue was infused in 3 escalating doses in the same animal. […] In all experiments the blood pressure reduction was transient and the blood pressure increased immediately after termination of the infusion. The analogues were used both as esters and acids for the experiments.

[4] = tested on: rabbit penile blood vessels; assay: Vasodilatory effect on isolated rabbit penile blood vessels precontracted with norepinephrine (myograph); format: cell-based; details: FIG. 2; precontracted with 10^−6 M norepinephrine; normalized to papaverine
Protocol: The solution also contained indomethacin at a final concentration of about 3 μM, and was continuously bubbled by 95% O2 and 5%CO2. The temperature was kept constant at 37° C. The vessels were stretched and then precontracted using 10^-6 M norepinephrine, and the vasorelaxant effect of the prostaglandin analogues was normalized by comparing it to that of papaverine in the same preparation. Cumulative concentration-response curves were constructed for the analogues.

[5] = log P estimated by thin layer chromatography; format: physicochemical; details: estimated from thin layer chromatography with PGF2α isopropyl ester as reference
cat eyes [6] = assay: Irritant effect in cat eyes (behavioural model, eyelid closure); format: in vivo; details: cat eye
rabbits = details: Hall and Jaitly, 1977; cited from earlier work
cat eyes [7] = assay: Intraocular pressure in cats by pneumatonometry after topical administration; format: in vivo; details: 3 cats, local anaesthesia; before treatment 16.3+/−0.9 mmHg; vehicle eye 16.3 and 15.7 mmHg
Protocol: To confirm that 19R-OH-PGE2-methyl ester, which is more hydrophilic than PGE1-isopropyl ester, indeed penetrates into the cornea and the intraocular parts of the eye we measured the intraocular pressure in 3 cats under local anaesthesia before and 1 hour after topical administration of the prostaglandin to the eye. The intraocular pressure was measured by pneumatonometry. One eye was treated with the test compound and the other eye received the vehicle only. In the eyes treated topically with 19R-OH-PGE2-methyl ester the intraocular pressure decreased from 16.3+/−0.9 mmHg to 12.7+/−1.2 mmHg, whereas it was 16.3+/−0.9 mmHg and 15.7+/−0.7 mmHg in the control eyes at the same time points. It is well known that prostaglandins reduce the intraocular pressure in cats (Bito et al., 1989), and it can thus be taken as an evidence that the drug has penetrated into the eye. […] Thus the absence of pain and irritation after administration of 18RS-OH-PGE2, 19R-OH-PGE2 and 20OH-PGE2 cannot be explained on the basis of increased hydrophilicity and poor bioavailability.

[8] = 7.5-10 μg/kg intravenous infusion
[9] = 25-35 μg/kg intravenous infusion

Compound: CCCCC[C@H](O)/C=C/[C@@H]1[C@@H](C/C=C\CCCC(=O)OC(C)C)[C@@H](O)C[C@H]1O [PGF2α isopropyl ester]
log P of reference [1]: (log P 4.5). ie = isopropyl ester, me = methyl ester.

EC50 ([2]; Homo sapiens): 250 nM
chromatographic logP [5]: 0.7
Compound: CCCCC[C@H](O)/C=C/[C@H]1[C@H](O)CC(=O)[C@@H]1CCCCCCC(=O)O [PGE1, prostaglandin E1, reference compound]
Reduction in tension (%) [2]: 90.9 ± 3.7%
Maximum irritative effect (cat eyes [3]; Dose 0.1 μg topically on eye): 0.6 ± 0.1
Maximum irritative effect (cat eyes [3]; Dose 1 μg topically on eye): 1.6 ± 0.2
Maximum irritative effect (cat eyes [3]; Dose 10 μg topically on eye): 3.0 ± 0.0
Reduction (%) of blood pressure (anaesthetized rats; [8]): 35 ± 5%
Reduction (%) of blood pressure (anaesthetized rats; [9]): 52 ± 3%
vasodilatory effect (in words) [4]: the same efficacy in inducing vasodilatation and were also about equipotent

Compound: COC(=O)CCC/C=C\C[C@H]1C(=O)C[C@@H](O)[C@@H]1/C=C/[C@@H](O)CCCCCO [20-OH-PGE2-me, 20-OH-Prostaglandin E2-Methyl Ester]
Maximum irritative effect (cat eyes [3]; Dose 3 μg topically on eye): 0.5 ± 0.0
Maximum irritative effect (cat eyes [3]; Dose 10 μg topically on eye): 1.2 ± 0.2
Maximum irritative effect (cat eyes [3]; Dose 30 μg topically on eye): 1.2 ± 04

EC50 [2]: 690 nM
Compound: C[C@@H](O)CCC[C@H](O)/C=C/[C@H]1[C@H](O)CC(=O)[C@@H]1C/C=C\CCCC(=O)O [19R-OH-PGE2, 19R-hydroxy-prostaglandin E2]
factor by which concentration-response curves of PGE1 and 19R-OH-PGE2 differ ([2]; FIG. 1, 19R-OH-PGE2 about half to one third as potent as PGE1): 2-3
Reduction in tension (%) [2]: 96.9 ± 3.1%
irritation by swelling of the ocular structures (in words) (cat eyes [6]): no evidence of such irritation
Reduction (%) of blood pressure (anaesthetized rats; [8]): 31 ± 3%
Reduction (%) of blood pressure (anaesthetized rats; [9]): 43 ± 6%
vasodilatory effect (in words) [4]: the same efficacy in inducing vasodilatation and were also about equipotent
lid closure and irritant effect in rabbit eye (in words) (rabbits): does not cause lid closure in rabbits but induces an irritant effect by inducing swelling of the ocular structures

Compound: CCCCC[C@H](O)/C=C/[C@H]1[C@H](O)CC(=O)[C@@H]1CCCCCCC(=O)OC(C)C [PGE1-ie, PGE1-isopropyl ester, reference compound]
Maximum irritative effect (cat eyes [3]; Dose 0.01 μg topically on eye): 0.4 ± 0.2
Maximum irritative effect (cat eyes [3]; Dose 0.1 μg topically on eye): 1.7 ± 0.3
Maximum irritative effect (cat eyes [3]; Dose 0.3 μg topically on eye): 2.8 ± 0.1

Compound: CCC(O)CC[C@H](O)/C=C/[C@H]1[C@H](O)CC(=O)[C@@H]1C/C=C\CCCC(=O)OC (stereo partly shown) [18RS-OH-PGE2-me, 18RS-Hydroxy PGE2 Methyl Ester]
Maximum irritative effect (cat eyes [3]; Dose 1 μg topically on eye): 0.0 ± 0.0
Maximum irritative effect (cat eyes [3]; Dose 3 μg topically on eye): 0.0 ± 0.0
Maximum irritative effect (cat eyes [3]; Dose 10 μg topically on eye): 0.0 ± 0.0
Maximum irritative effect (cat eyes [3]; Dose 30 μg topically on eye): 0.3 ± 0.2
irritant effect (in words) (cat eyes [3]): no or markedly reduced irritant effect, even at doses 1000 times higher than PGE1-isopropyl ester

Compound: COC(=O)CCC/C=C\C[C@H]1C(=O)C[C@@H](O)[C@@H]1/C=C/[C@@H](O)CCC[C@@H](C)O [19R-OH-PGE2-me, 19-R-Hydroxy-prostaglandin E2-Methyl Ester]
intraocular pressure 1 hour after topical administration (cat eyes [7]): 12.7+/−1.2 mmHg
Maximum irritative effect (cat eyes [3]; Dose 0.1 μg topically on eye): 0.0 ± 0.0
Maximum irritative effect (cat eyes [3]; Dose 1 μg topically on eye): 0.1 ± 0.1
Maximum irritative effect (cat eyes [3]; Dose 10 μg topically on eye): 0.1 ± 0.1
Maximum irritative effect (cat eyes [3]; Dose 100 μg topically on eye): 0.7 ± 0.4
irritant effect (in words) (cat eyes [3]): no or markedly reduced irritant effect, even at doses 1000 times higher than PGE1-isopropyl ester

Compound: O=C(O)CCC/C=C\C[C@H]1C(=O)C[C@@H](O)[C@@H]1/C=C/[C@@H](O)CCCCCO [20-OH-PGE2, 20-hydroxy PGE2]
Reduction (%) of blood pressure (anaesthetized rats; [8]): 38 ± 3%
Reduction (%) of blood pressure (anaesthetized rats; [9]): 44 ± 0%

Compound: C[N+](C)(C)CCOC(N)=O [Carbachol, reference compound]
Reduction in tension (%) [2]: 100.0 ± 0.0%

Compound: 18RS-OH-PGE2
Reduction (%) of blood pressure (anaesthetized rats; [8]): 15 ± 3%
Reduction (%) of blood pressure (anaesthetized rats; [9]): 32 ± 2%
